As a reminder, the pIC50 is the negative decadic logarithm of the IC50, by convention in mol/L. By IC50 is commonly meant the midpoint of a concentration-inhibition curve. A word on the viability: it is the share of living cells, or the viability signal relative to a control. Broadly, the melting point is the temperature, or range, at which the solid turns liquid. As usually defined, the MIC is the least concentration at which growth counts as inhibited. Higher therefore signals a need for much substance.

The values below come from paper PMC11721939, “Novel tetrahydronaphthalen-1-yl-phenethyl ureas: synthesis and dual antibacterial-anticancer activities” (Journal of Enzyme Inhibition and Medicinal Chemistry, 2023).

Data set [1] concerns PCS-201-012 cells. Also noted: method as in PMID 27488500. Particulars: fibroblast cells (PCS-201-012 column), cisplatin; read-out: Cytotoxic activity IC50; cited from earlier work.
Data set [2] deals with HeLa cells. Particulars: cited from earlier work.
In data set [3] the test system is SH-SY5Y cells. Particulars: cited from earlier work.
The nature of data set [4]: WST-8 cytotoxicity assay. Particulars: human, PCS-201-012 healthy primary dermal fibroblast cells, PCS-201-012 healthy fibroblast cells, WST-8, n = 4, read-out: Cytotoxic activity IC50. It counts as cell-based. The protocol: (§1) The cells in culture were frequently sub-cultured, about 2–3 times weekly, until they reached a confluence of 80–90%. The experiments were organised into seven cell groups as follows: group I served as the control, while groups II through VII were pre-treated with varying dosages of the synthesised ureas (ranging from 12.5 µM to 500 µM). The cytotoxic potential of these ureas was assessed in vitro using the Cell Viability Detection Kit-8 (CVDK-8, Ecotech Biotechnology, Erzurum, Turkey), a method based on WST-8 quantification for human primary dermal fibroblasts and cervical cancer cells. Healthy fibroblast, HeLa, and SH-SY5Y cells were allocated in 96-well plates, with each well containing 5 × 10^3 cells in 100 µL of DMEM:F12 (supplemented with 1% penicillin/streptomycin and 10% FBS). After an overnight growth, these cells were exposed to specified concentrations of the synthesised ureas for a duration of 48 h at 37 °C in a 5% CO2 atmosphere. Cisplatin acted as the positive control with concentration gradients of 0–250 µM for HeLa cells and 0–20 µM for the SH-SY5Y cells. Post incubation, in sterile, dimly lit conditions, 10% WST-8 solution was added to every well and further incubated at 37 °C within 5% CO2 for another 3–4 h. The optical density of the 96-well plate was gauged at a 450 nm wavelength using a spectrophotometer (BioTek, EPOCH, Santa Clara, CA). The control group’s main purpose was to measure the absorbance of just the cells and the growth medium.

The nature of data set [5]: WST-8 cytotoxicity assay. It counts as cell-based, human. Particulars: human, SH-SY5Y cells, SH-SY5Y, 48 h, read-out: Cell viability. How it is done: as §1
The subject of data set [6] is HeLa cells. Nature of the data set: WST-8 cytotoxicity assay. Particulars: for pIC50: Homo sapiens, HeLa cells, 48 h, WST-8, n = 4, read-out: Cytotoxic activity IC50; for SI value (HeLa cells): IC50 PCS-201-012 fibroblasts / IC50 HeLa, n = 4. It counts as cell-based, human. The protocol:
as §1
(Tetrazolium assays rely on reduction of a dye to a coloured formazan, in cell work by metabolically active cells.)

The test system of data set [7] is SH-SY5Y cells. Description: WST-8 cytotoxicity assay. It counts as cell-based, human. Particulars: for pIC50: Homo sapiens, SH-SY5Y, 48 h, WST-8, n = 4, read-out: Cytotoxic activity IC50; for SI value (SH-SY5Y cells): IC50 PCS-201-012 fibroblasts / IC50 SH-SY5Y, n = 4. How it is done:
as §1

Data set [8] concerns all tested bacterial strains. Description: Antibacterial activity (MIC) summarised over all tested bacterial strains. It counts as cell-based. Particulars: against the studied bacteria. How it is done:
(§2) The bacteria employed for evaluation included Acinetobacter baumannii ATCC 1605, Enterococcus faecalis ATCC 49452, Pseudomonas aeruginosa ATCC 9027, and Staphylococcus aureus MRSA ATCC 43300. These strains were sourced from the Molecular Biology and Genetics Laboratory at Erzurum Technical University. They were immersed in Mueller-Hinton Broth (MHB) and then incubated at a temperature of 37 °C for a duration of 16–24 h.
Bacteria were adjusted to a McFarland standardisation of 0.5, equivalent to a cell density of 1.5 × 10^8/ml, and were then introduced into MHB. Subsequently, a 100 μl volume of this bacterial mixture was spread onto Mueller-Hinton agar plates. Sterile empty discs were then treated with the formulated ureas at concentrations of 1000, 500, and 250 µM. Oflaxin ([…]) and netilmicin ([…]) were used as positive controls, while DMSO served as the negative control. The plates were then placed in an incubator at 37 °C for a period ranging from 24 to 72 h, depending on the optimal conditions. Post incubation, the diameter of the inhibition zones was gauged to determine the antibacterial efficacy. […]
The synthesised ureas’ minimum inhibitory concentrations (MICs) against the bacterial samples were ascertained using the microdilution broth technique. […] Post incubation, the growth of the bacteria was assessed at 600 nm using the Fluoroskan Ascent® FL. […]

In data set [9] the test system is Enterococcus faecalis ATCC 49452. Description: Disc diffusion method. Particulars: read-out: Disc diffusion test, inhibitory zone diameter; for zone of inhibition at 500 µM: ATCC49452, 500 µM; for zone of inhibition at 1000 µM: ATCC49452, 1000 µM. It counts as cell-based. How it is done: as §2
(§3) Bacteria were adjusted to a McFarland standardisation of 0.5, equivalent to a cell density of 1.5 × 10^8/ml, and were then introduced into MHB. Subsequently, a 100 μl volume of this bacterial mixture was spread onto Mueller-Hinton agar plates. Sterile empty discs were then treated with the formulated ureas at concentrations of 1000, 500, and 250 µM. Oflaxin ([…]) and netilmicin ([…]) were used as positive controls, while DMSO served as the negative control. The plates were then placed in an incubator at 37 °C for a period ranging from 24 to 72 h, depending on the optimal conditions. Post incubation, the diameter of the inhibition zones was gauged to determine the antibacterial efficacy. This entire process was replicated three times.
Background: Agar diffusion results depend on both activity and mobility in agar.

For data set [10], the system named is Pseudomonas aeruginosa ATCC 9027. Description: Disc diffusion method. It counts as cell-based. Particulars: read-out: Disc diffusion test, inhibitory zone diameter; for zone of inhibition at 250 µM: ATCC9027, 250 µM; for zone of inhibition at 500 µM: ATCC9027, 500 µM; for zone of inhibition at 1000 µM: ATCC9027, 1000 µM. The protocol: as §2, §3
In data set [11] the test system is Acinetobacter baumannii ATCC 1605. Description: Disc diffusion method. It counts as cell-based. Particulars: read-out: Disc diffusion test, inhibitory zone diameter; for zone of inhibition at 250 µM: ATCC1605, 250 µM; for zone of inhibition at 500 µM: ATCC1605, 500 µM; for zone of inhibition at 1000 µM: ATCC1605, 1000 µM. The protocol:
as §2, §3

Data set [12] relates to Staphylococcus aureus MRSA ATCC 43300. Nature of the data set: Disc diffusion method. Particulars: Staphylococcus aureus, read-out: Disc diffusion test, inhibitory zone diameter. It counts as cell-based. How it is done:
as §2, §3

The test system of data set [13] is Enterococcus faecalis ATCC 49452. Description: Micro-well dilution assay (MIC). Particulars: ATCC49452. It counts as cell-based. How it is done:
as §2
(§4) The synthesised ureas’ minimum inhibitory concentrations (MICs) against the bacterial samples were ascertained using the microdilution broth technique. Utilising a method of twofold serial dilutions, the ureas were diluted to concentrations spanning from […]. The bacterial turbidity was set to match the 0.5 McFarland standard. In the 96-well plates, each well received 100 μl of MHB and 5 μl of the bacteria being tested. For the negative control, 195 μl of MHB and 5 μl of the bacterial sample were added. The plate was then covered with a sterile seal and allowed to incubate for 24 h at a temperature of 37 °C. Post incubation, the growth of the bacteria was assessed at 600 nm using the Fluoroskan Ascent® FL. The MIC represented the smallest amount of the chemical that effectively halted bacterial growth. This procedure was conducted three times.

Data set [14] concerns Pseudomonas aeruginosa ATCC 9027. Description: Micro-well dilution assay (MIC). It counts as cell-based. Particulars: ATCC9027. The protocol: as §2, §4
Data set [15] has as its system Acinetobacter baumannii ATCC 1605. Description: Micro-well dilution assay (MIC). It counts as cell-based. Particulars: ATCC1605. The protocol: as §2, §4
Data set [16] relates to Staphylococcus aureus MRSA ATCC 43300. Description: Micro-well dilution assay (MIC). It counts as cell-based. The protocol: as §2, §4
Where [17] appears, read: read-out: Cytotoxic activity IC50, cisplatin positive control.
Setting [18] is: read-out: Cytotoxic activity IC50, melphalan control.

pIC50: −log10 of the molar value. Values after ≈ are worked out from the molar mass of the structure shown. Where two headings read alike, the source gives them in different places.

Regarding `N.N.[Cl][Pt][Cl]` [Cisplatin, cis-diammineplatinum(II) dichloride], the pIC50 in [1] was < 4.00; in [2] (setting [17]), < 4.30; in data set [3] (setting [17]) it was 5.00.

For `COc1cccc2c1CCCC2NC(=O)NCCc1ccccc1` (stereo not shown) [Compound 14, 1-(5-methoxy-1,2,3,4-tetrahydronaphthalen-1-yl)-3-phenethylurea], the IC50 at 48 h in [4] came out at 7.9 µM. Besides, the viability at 48 h, 12.5 µM in data set [5] (12.5 µM) came to 25.5%. In addition, the viability at 48 h, 25 µM in [5] (25 µM) was 8.4%. Besides, the viability at 48 h, 50 µM in [5] (50 µM) was 4.68%. For the same molecule, the viability at 48 h, 100 µM in data set [5] (100 µM) was 4.87%. Further, the viability at 48 h, 300 µM in data set [5] (300 µM) was determined as 3.77%. Moreover, the viability at 48 h, 500 µM in data set [5] (500 µM) worked out at 1.67%. The values for the pIC50 in [6] and in data set [7] were 5.59 and 5.01, respectively. Moreover, in data set [8], the “Antibacterial properties (in words)” value was “did not display any antibacterial properties”.

As for `COc1ccc(CCNC(=O)NC2CCCc3c(OC)cccc32)cc1` (stereo not shown) [Compound 18, 1-(5-Methoxy-1,2,3,4-tetrahydronaphthalen-1-yl)-3-(4-methoxyphenethyl)urea], the melting point fell in the range of 150 to 152 °C. Moreover, in data set [4], the IC50 at 48 h came to 374 µM. In addition, in [6], the pIC50 is 3.44 and the “SI value (HeLa cells)” value is recorded as 1.02. Further, in data set [7], the pIC50 was 4.99 and the “SI value (SH-SY5Y cells)” value stood at 36.72. Also, the zone of inhibition at 250 µM in [9] (ATCC49452, 250 µM) worked out at 5 mm. Moreover, in data set [9], the zone of inhibition at 500 µM turned out to be 7 mm and the zone of inhibition at 1000 µM was determined as 13 mm. In [10], the zone of inhibition at 250 µM was determined as 9 mm, the zone of inhibition at 500 µM was 10 mm and the zone of inhibition at 1000 µM was determined as 15 mm. Moreover, in data set [11], the zone of inhibition at 250 µM came out at 6 mm, the zone of inhibition at 500 µM was found to be 10 mm and the zone of inhibition at 1000 µM turned out to be 16 mm. Moreover, in data set [12], the zone of inhibition at 250 µM is 5 mm, the zone of inhibition at 500 µM came to 12 mm and the zone of inhibition at 1000 µM amounted to 15 mm. Further, the MIC in data set [13] was 0.97 µM (≈ 0.344 µg/mL). Further, in [14], the minimal inhibitory concentration (MIC) worked out at 3.9 µM (≈ 1.38 µg/mL). The MIC in [15] stood at 7.81 µM (≈ 2.77 µg/mL). This molecule also registered an MIC in [16] of 3.9 µM (≈ 1.38 µg/mL).

The molecule `COc1ccc(CCNC(=O)NC2CCCc3c(OC)cccc32)cc1OC` (stereo not shown) [Compound 17, 1-(3,4-Dimethoxyphenethyl)-3-(5-methoxy-1,2,3,4-tetrahydronaphthalen-1-yl)urea] showed a melting point of 168 to 170 °C. In [4], the IC50 at 48 h amounted to 380 µM. Also, in data set [6], the pIC50 is 3.60 and the “SI value (HeLa cells)” value was determined as 1.51. In addition, in data set [7], the pIC50 is 5.01 and the “SI value (SH-SY5Y cells)” value was 39.08. In data set [9], the zone of inhibition at 500 µM is 7 mm and the zone of inhibition at 1000 µM came to 10 mm. Further, in data set [10], the zone of inhibition at 250 µM turned out to be 7 mm, the zone of inhibition at 500 µM came to 10 mm and the zone of inhibition at 1000 µM worked out at 10 mm. In [11], the zone of inhibition at 250 µM is 6 mm, the zone of inhibition at 500 µM came out at 8 mm and the zone of inhibition at 1000 µM turned out to be 15 mm. In data set [12], the zone of inhibition at 250 µM was determined as 8 mm, the zone of inhibition at 500 µM was determined as 13 mm and the zone of inhibition at 1000 µM came to 14 mm. Further, the MIC in [13] was found to be 0.97 µM (≈ 0.373 µg/mL). Besides, the MIC in data set [14] is 7.81 µM (≈ 3 µg/mL). For the same molecule, in data set [15], the MIC was determined as 7.81 µM (≈ 3 µg/mL). The MIC in data set [16] stood at 7.81 µM (≈ 3 µg/mL).

Take `N[C@@H](Cc1ccc(N(CCCl)CCCl)cc1)C(=O)O` [Melphalan, melphalan]: the values for the pIC50 in [2] (setting [18]) and in data set [3] (setting [18]) were 4.21 and 5.66, respectively.
